Experimental findings from patent publication US9464063B2, “Benzo [B] [1,4] oxazin derivatives as calcium sensing receptor modulators” (LUPIN ATLANTIS HOLDINGS SA, priority 2011, dated 2016) are described below.

Molecules are shown by their SMILES. Counter-ions that a name gives are not always drawn. Some results are limits rather than exact numbers.

The target of the assay is T1, Calcium sensing receptor (hCaSR) (Homo sapiens, UniProt P41180).
T1 construct: expressed in transfected cells
T1 sequence (P41180 20-1078): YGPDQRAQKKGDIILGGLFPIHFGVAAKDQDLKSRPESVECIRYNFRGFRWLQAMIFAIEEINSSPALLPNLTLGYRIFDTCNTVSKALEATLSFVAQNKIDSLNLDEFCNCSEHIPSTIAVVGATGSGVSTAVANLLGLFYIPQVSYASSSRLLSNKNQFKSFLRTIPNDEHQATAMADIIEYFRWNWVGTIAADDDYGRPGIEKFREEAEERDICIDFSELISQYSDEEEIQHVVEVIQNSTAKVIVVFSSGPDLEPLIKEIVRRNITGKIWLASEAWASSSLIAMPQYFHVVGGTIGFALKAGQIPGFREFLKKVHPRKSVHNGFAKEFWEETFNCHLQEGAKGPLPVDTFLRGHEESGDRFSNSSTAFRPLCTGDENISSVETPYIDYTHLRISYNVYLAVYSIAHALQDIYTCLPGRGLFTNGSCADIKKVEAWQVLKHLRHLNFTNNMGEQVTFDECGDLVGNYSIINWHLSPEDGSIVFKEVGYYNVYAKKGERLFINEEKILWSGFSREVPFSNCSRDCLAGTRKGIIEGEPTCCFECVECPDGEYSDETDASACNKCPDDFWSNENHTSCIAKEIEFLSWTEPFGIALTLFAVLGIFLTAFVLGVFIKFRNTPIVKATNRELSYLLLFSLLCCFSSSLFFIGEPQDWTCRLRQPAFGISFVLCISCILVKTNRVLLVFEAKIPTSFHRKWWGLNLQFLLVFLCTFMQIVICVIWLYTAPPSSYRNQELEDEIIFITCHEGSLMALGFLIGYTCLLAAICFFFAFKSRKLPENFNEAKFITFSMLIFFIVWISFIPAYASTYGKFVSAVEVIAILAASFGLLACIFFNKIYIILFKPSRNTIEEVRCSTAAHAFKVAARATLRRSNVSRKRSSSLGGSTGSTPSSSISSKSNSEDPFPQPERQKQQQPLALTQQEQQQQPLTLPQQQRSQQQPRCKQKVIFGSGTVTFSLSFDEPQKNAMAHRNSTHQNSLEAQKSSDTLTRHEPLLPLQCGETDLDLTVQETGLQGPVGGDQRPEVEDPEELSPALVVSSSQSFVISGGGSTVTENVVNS
Put plainly: In-vitro assay of calcimimetics through modulation of calcium sensing receptor: increase in intracellular calcium [Ca2+]i, FLIPR. The conditions noted are these: stably transfected HEK293 cells expressing hCaSR; Fluo4NW dye; 0.3 mM CaCl2; 8-point assay; read-out: EC50 Range. The assay is classed as cell-based. The procedure: In-Vitro Assay Method of Calcimemtics Through Modulation of Calcium Sensing Receptor (CaSR):
The ability of the compounds to modulate Calcium sensing receptor is determined by measuring an increase in intracellular calcium [Ca^2+]i. Stably transfected HEK293 cells expressing hCaSR_pTriEx-3 hygro vector are developed. Cells are grown overnight on a 96-well plate to 80% confluency in Ham's F12 containing 20% FBS at 37° C., 5% CO2. Subsequently, cells are washed extensively with 20 mM HEPES buffer containing 126 mM NaCl, 1 mM MgCl2 and 4 mM KCl to remove serum components that might interfere with the assay. Cells are loaded with calcium sensing Fluo4NW dye in HEPES base buffer containing 0.1% BSA and 1 mg/ml glucose for 30 minutes to measure changes in intracellular calcium. The activities of the compounds are measured in FLIPR using 0.3 mM CaCl2 in 20 mM HEPES base buffer. The effectiveness of the compound to modulate receptor activity is determined by calculating the EC50 responses for that compound in an 8-point assay and plotted using GraphPad Prism 5.
Background: Calcium assays in cells follow changes in intracellular calcium, usually with a dye or a luminescent sensor.
The term EC50 denotes the concentration at which the effect is half-maximal. For the molecule `Cc1ccc(CN2CC(CCN[C@H](C)c3cccc4ccccc34)Oc3ccccc32)cc1C(=O)O` (stereo partly drawn) [Example 177a, 2-Methyl-5-((2-(2-(((R)-1-(naphthalen-1-yl)ethyl)amino)ethyl)-2H-benzo[b][1,4]oxazin-4(3H)-yl)methyl)benzoic acid hydrochloride], the EC50 was less than 0.02 µM.

Take `Cc1ccc(N2C(=O)C(CN[C@H](C)c3cccc4ccccc34)Oc3ccccc32)cc1C(=O)O` (single isomer, unassigned) [Example 87b, hydrochloride]: the EC50 was in the range of 0.02 to 0.05 µM. Turning to `COC(=O)c1cc(N2CC(CN[C@H](C)c3cccc4ccccc34)Oc3ccccc32)ccc1C` (single isomer, unassigned) [Example 31b], the EC50 is less than 0.02 µM. Consider `Cc1ccc(N2CC(CCN[C@H](C)c3cccc4ccccc34)Oc3ccccc32)cc1C(=O)O` (single isomer, unassigned) [Example 133b, hydrochloride], for which the EC50 is less than 0.02 µM.

Consider `C[C@@H](NCC1CN(c2cccc(C(=O)O)c2)c2ccccc2O1)c1cccc2ccccc12` (stereo partly drawn) [Example 41, 3-(2-((((R)-1-(Naphthalen-1-yl)ethyl)amino)methyl)-2H-benzo[b][1,4]oxazin-4(3H)-yl)benzoic acid hydrochloride], for which the EC50 was in the range of 0.02 to 0.05 µM. With `Cc1cc(C(=O)O)cc(N2CC(CN[C@H](C)c3cccc4ccccc34)Oc3ccccc32)c1` (single isomer, unassigned) [Example 62a, hydrochloride] the figure was 0.05 to 0.2 µM; with `COC(=O)c1ccc(N2CC(CN[C@H](C)c3cccc4ccccc34)Oc3ccccc32)cc1` (single isomer, unassigned) [Example 2b, hydrochloride], 0.02 to 0.05 µM; with `Cc1c(C(=O)O)cccc1N1CC(CN[C@H](C)c2cccc3ccccc23)Oc2ccccc21` (single isomer, unassigned) [Example 58a, hydrochloride], 0.02 to 0.05 µM. In the case of `C[C@@H](NCCC1CN(c2cccc(C(=O)O)c2)c2cccc(F)c2O1)c1cccc2ccccc12` (single isomer, unassigned) [Example 160a, hydrochloride] it was less than 0.02 µM; in that of `COc1cc(C(=O)O)cc(N2CC(CN[C@H](C)c3cccc4ccccc34)Oc3ccccc32)c1` (stereo partly drawn) [Example 54, 3-Methoxy-5-(2-((((R)-1-(naphthalen-1-yl)ethyl)amino)methyl)-2H-benzo [b][1,4]oxazin-4(3H)-yl) benzoic acid hydrochloride], 0.05 to 0.2 µM; in that of `Cc1ccc(N2CC(C)(CN[C@H](C)c3cccc4ccccc34)Oc3ccccc32)cc1C(=O)O` (single isomer, unassigned) [Example 86a, hydrochloride], 0.05 to 0.2 µM.

In the case of `C[C@@H](NCCC1CN(c2cccc(C(=O)O)c2)c2cc(F)ccc2O1)c1cccc2ccccc12` (single isomer, unassigned) [Example 167a], the EC50 was less than 0.02 µM. In the case of `COC(=O)c1ccc(N2CC(CN[C@H](C)c3cccc4ccccc34)Oc3ccccc32)cc1` (single isomer, unassigned) [Example 2a, hydrochloride] it was 0.05 to 0.2 µM; in that of `Cc1cc(N2CC(CCN[C@H](C)c3cccc4ccccc34)Oc3ccccc32)ccc1OCC(=O)O` (stereo partly drawn) [Example 144a, 2-(2-Methyl-4-(2-(2-(((R)-1-(naphlhalen-1-yl)ethyl)amino)ethyl)-2H-benzo[b] [1,4]oxazin-4(3H)-yl)phenoxy)aceticacid hydrochloride], less than 0.02 µM. Turning to `C[C@@H](NCCC1CN(c2ccc(CC(=O)O)cc2)c2ccccc2O1)c1cccc2ccccc12` (stereo partly drawn) [Example 143a, 2-(4-(2-(2-(((R)-1-(Naphthalen-1-yl)ethyl)amino)ethyl)-2H-benzo[b][1,4]oxazin-4(3H)-yl)phenyl) acetic acid hydrochloride], the EC50 was 0.05 to 0.2 µM. Turning to `C[C@@H](NCC1CN(c2ccc(O)c(C(=O)O)c2)c2ccccc2O1)c1cccc2ccccc12` (single isomer, unassigned) [Example 66b, hydrochloride], the EC50 is less than 0.02 µM.

As for `COc1ccc(C(=O)O)cc1N1CC(CN[C@H](C)c2cccc3ccccc23)Oc2ccccc21` (single isomer, unassigned) [Example 55a, hydrochloride], the EC50 fell in the range of 0.05 to 0.2 µM. With `C[C@@H](NCCC1CN(c2ccc(C(F)(F)F)c(C(=O)O)c2)c2ccccc2O1)c1cccc2ccccc12` (stereo partly drawn) [Example 135a, 5-(2-(2-(((R)-1-(Naphthalen-1-yl)ethyl)amino)ethyl)-2H-benzo [b][1,4]oxazin-4(3H)-yl)-2-(trifluoromethyl) benzoic acid hydrochloride] the figure was less than 0.02 µM; with `C[C@@H](NCC1CN(c2ccc(C(=O)O)c(C(F)(F)F)c2)c2ccccc2O1)c1cccc2ccccc12` (single isomer, unassigned) [Example 64b, hydrochloride], less than 0.02 µM; with `C[C@@H](NCCC1CN(c2ccc(OCC(=O)O)cc2)c2c(F)cccc2O1)c1cccc2ccccc12` (single isomer, unassigned) [Example 172a, hydrochloride], less than 0.02 µM. Turning to `C[C@@H](NCCC1CN(c2ccc(OCC(=O)O)cc2)c2cccc(F)c2O1)c1cccc2ccccc12` (single isomer, unassigned) [Example 164a, hydrochloride], the EC50 is less than 0.02 µM. For `Cc1ccc(N2CC(CN[C@H](C)c3cccc4ccccc34)Oc3ccccc32)cc1OCC(=O)O` (single isomer, unassigned) [Example 76a, hydrochloride], the EC50 was less than 0.02 µM. With `Cc1cc(N2CC(CCN[C@H](C)c3cccc4ccccc34)Oc3ccccc32)ccc1C(=O)O` (stereo partly drawn) [Example 134a, 2-Melhyl-4-(2-(2-(((R-1-(naphthalen-1-yl)ethyl)amino)ethyl)-2H-benzo[b] [1,4]oxazin-4(3H)-yl)benzoic acid hydrochloride] the figure was 0.05 to 0.2 µM. For `Cc1ccc(N2CC(CCN[C@H](C)c3cccc4ccccc34)Oc3c(F)cccc32)cc1C(=O)O` (single isomer, unassigned) [Example 159a, hydrochloride], the EC50 is 0.02 to 0.05 µM. With `C[C@@H](NCCC1CN(c2ccc(OCC(=O)O)cc2)c2ccc(F)cc2O1)c1cccc2ccccc12` (single isomer, unassigned) [Example 161a, hydrochloride] the figure was less than 0.02 µM; with `Cc1ccc(N2CC(CCN[C@H](C)c3cccc4ccccc34)Oc3ccc(F)cc32)cc1C(=O)O` (single isomer, unassigned) [Example 166a, hydrochloride], less than 0.02 µM; with `Cc1ccc(N2CC(CN[C@H](C)c3cccc4ccccc34)Oc3ccccc32)c(C)c1C(=O)O` (single isomer, unassigned) [Example 70b, hydrochloride], less than 0.02 µM. As for `C[C@@H](NCC1CN(c2cccc(CCC(=O)O)c2)c2ccccc2O1)c1cccc2ccccc12` (single isomer, unassigned) [Example 68b, hydrochloride], the EC50 lay within 0.05 to 0.2 µM. Take `Cc1ccc(N2CC(CN[C@H](C)c3cccc4ccccc34)Oc3ccccc32)cc1OC(C)(C)C(=O)O` (single isomer, unassigned) [Example 77a, hydrochloride]: the EC50 was in the range of 0.05 to 0.2 µM. With `Cc1ccc(N2CC(CN[C@H](C)c3cccc4ccccc34)Oc3ccccc32)cc1C(=O)O` (single isomer, unassigned) [Example 71b, hydrochloride] the figure was less than 0.02 µM.
